31 compounds from PubChem BioAssay AID624129 (Sanford-Burnham Center for Chemical Genomics, 2012) can be followed below.

Common to all, as to test: potency against CXCR6 with APJ panel – cell-based, beta-arrestin, DiscoveRx, uHTS hits, dose response (AID 624129)
For test [1], the target named is C-X-C chemokine receptor type 6 (Homo sapiens) (UniProt O00574). To be noted: CXCR6 beta-arrestin (DiscoveRx) antagonist cell assay.
For test [2], the target named is Apelin receptor (Homo sapiens) (UniProt P35414). Conditions: CXCR6 beta-arrestin (DiscoveRx) antagonist cell assay, APJ.
The target of test [3] is C-C chemokine receptor type 6 (Homo sapiens) (UniProt P51684). To be noted: CXCR6 beta-arrestin (DiscoveRx) antagonist cell assay.
Where [4] appears, read: CXCR6, dose range 1, mean IC50 across replicates.
[5] abbreviates: CXCR6, run 2, dose range 1, at 79 µM (top of the series).

The structures appear in SMILES notation. pIC50: −log10 of the molar value. Active and inactive are the calls of the source. How the calls were made is not given here.

Sequence of C-X-C chemokine receptor type 6 (Homo sapiens) (O00574 whole entry, looked up): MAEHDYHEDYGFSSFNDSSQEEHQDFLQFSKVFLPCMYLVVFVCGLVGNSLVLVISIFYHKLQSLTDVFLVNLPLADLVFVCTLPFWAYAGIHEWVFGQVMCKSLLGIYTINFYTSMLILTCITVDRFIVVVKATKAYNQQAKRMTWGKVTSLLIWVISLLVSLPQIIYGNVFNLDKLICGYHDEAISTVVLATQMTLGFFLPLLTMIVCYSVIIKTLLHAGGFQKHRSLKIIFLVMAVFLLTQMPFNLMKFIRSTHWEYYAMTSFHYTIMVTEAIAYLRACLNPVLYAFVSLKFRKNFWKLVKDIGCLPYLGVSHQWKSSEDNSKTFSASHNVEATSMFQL

The term pIC50 denotes the IC50 on a negative log10 scale, so that one unit is a factor of ten. One may read the inhibition as the drop in the measured response relative to a control, in per cent. For `COc1ccc(NC(=S)NNc2ccc([N+](=O)[O-])cc2S(=O)(=O)Nc2ccc(C)cc2C)cc1`, the result in test [1] (CXCR6, dose range 1) was inactive. For the same compound, the pIC50 was 4.45 in test [1] (setting [4]); below 4.10 in test [1] (CXCR6, run 1, dose range 2); 4.46 in test [1] (CXCR6, run 2, dose range 2). In addition, the inhibition in test [1] (setting [5]) is 106%.
With `CCOC(=O)c1c(-c2ccc(C)o2)csc1NC(=S)NC(=O)N(C)C`, in test [1] (CXCR6, dose range 1), the outcome was inactive. Further, the pIC50 in test [1] (setting [4]) was 4.87; in test [1] (CXCR6, run 1, dose range 2), 5.04; in test [1] (CXCR6, run 2, dose range 2), 4.75. The inhibition in test [1] (setting [5]) amounted to 99.3%.
For `Cc1ccc(P(=O)(c2ccc(C)cc2)[C@@H](NC(c2ccccc2)c2ccccc2)c2ccccc2)cc1`, the result in test [1] (CXCR6, dose range 1) was inactive. The pIC50 in test [1] (setting [4]) is 4.71; in test [1] (CXCR6, run 1, dose range 2) it was 4.77; in test [1] (CXCR6, run 2, dose range 2), 4.66. For the same compound, in test [1] (setting [5]), the inhibition turned out to be 82.4%.
Regarding `O=[N+]([O-])/C=C/c1ccc2c(ccn2Cc2ccccc2)c1`, the result in test [1] (CXCR6, dose range 1) was inactive. Further, the pIC50 in test [1] (setting [4]) is 4.95; in test [1] (CXCR6, run 1, dose range 2), 5.04; in test [1] (CXCR6, run 2, dose range 2), 4.87. For the same compound, the inhibition in test [1] (setting [5]) stood at 111%.
Turning to `CCCOc1ccc(CN(CCC#N)C(=S)NC(=O)c2ccccc2)cc1`, in test [1] (CXCR6, dose range 1), the outcome was inactive. Also, the pIC50 in test [1] (setting [4]) is 4.70; in test [1] (CXCR6, run 1, dose range 2) it was 4.98; in test [1] (CXCR6, run 2, dose range 2), 4.53. Further, the inhibition in test [1] (setting [5]) is 68.9%.
Taken in the same sequence, the figures for `COc1ccc(-c2c(C(=O)c3ccccc3)[nH]c(N)c2C(=O)c2ccccc2)cc1OC` were “inactive”, 4.55, 4.48, 4.62 and 71.1%.
As for `COc1cc(C2C(C#N)=C(N)Oc3n[nH]c(-c4cccnc4)c32)cc(Br)c1O` (configuration not stated), the outcome in test [1] (CXCR6, dose range 1) was inactive. Further, the negative logarithm of the IC50 (pIC50) in test [1] (setting [4]) is 4.54; in test [1] (CXCR6, run 1, dose range 2) it was 4.61; in test [1] (CXCR6, run 2, dose range 2), 4.48. The inhibition in test [1] (setting [5]) stood at 86.6%.
For the compound `COc1cc(/C=C(\C#N)c2nc(-c3cc4ccccc4oc3=O)cs2)ccc1O`, the result in test [1] (CXCR6, dose range 1) was inactive. The pIC50 in test [1] (setting [4]) is 4.51; in test [1] (CXCR6, run 1, dose range 2), 4.63; in test [1] (CXCR6, run 2, dose range 2) it was 4.42. The inhibition in test [1] (setting [5]) turned out to be 84.1%.
For `COc1ccc(/C=C2/CCC(CN3CCOCC3)C2=O)cc1` (configuration not stated), in test [1] (CXCR6, dose range 1), the outcome was inactive. Further, the pIC50 in test [1] (setting [4]) is 4.83; in test [1] (CXCR6, run 1, dose range 2) it was 4.85; in test [1] (CXCR6, run 2, dose range 2), 4.82. In addition, the inhibition in test [1] (setting [5]) was determined as 112%.
Turning to `N#Cc1c([N+](=O)[O-])cc([N+](=O)[O-])cc1S(=O)(=O)Cc1ccccc1`, the outcome in test [1] (CXCR6, dose range 1) was inactive. Further, the pIC50 in test [1] (setting [4]) was 4.93; in test [1] (CXCR6, run 1, dose range 2), 4.95; in test [1] (CXCR6, run 2, dose range 2), 4.90. Further, the inhibition in test [1] (setting [5]) turned out to be 114%.
As to `CCC(=O)OCCNc1cc(SCCC(=O)OC)c2nonc2c1[N+](=O)[O-]`, the outcome in test [1] (CXCR6, dose range 1) was inactive. The pIC50 was 4.65 in test [1] (setting [4]); 4.67 in test [1] (CXCR6, run 1, dose range 2); 4.63 in test [1] (CXCR6, run 2, dose range 2). Besides, the inhibition in test [1] (setting [5]) was 108%.
Take `COc1cccc(C(=O)NC(=S)N2CCN(c3ccc(C(F)(F)F)cc3[N+](=O)[O-])CC2)c1`: in test [1] (CXCR6, dose range 1), the result was inactive. The pIC50 in test [1] (setting [4]) was 4.87; in test [1] (CXCR6, run 1, dose range 2) it was 4.88; in test [1] (CXCR6, run 2, dose range 2), 4.85. The inhibition in test [1] (setting [5]) came to 74.3%.
For `C=CCOc1ccc(C=NNc2ccc(S(=O)(=O)Nc3ccccc3C(=O)O)cc2[N+](=O)[O-])cc1OC`, the outcome in test [1] (CXCR6, dose range 1) was inactive. Also, the pIC50 in test [1] (setting [4]) was 4.54; in test [1] (CXCR6, run 1, dose range 2), 4.53; in test [1] (CXCR6, run 2, dose range 2) it was 4.55. In test [1] (setting [5]), the inhibition worked out at 98.5%.
Take `Cc1ccc(NC(=O)c2ccc(Nc3c([N+](=O)[O-])cc([N+](=O)[O-])cc3[N+](=O)[O-])cc2)cc1`: the result in test [1] (CXCR6, dose range 1) was inactive. The pIC50 in test [1] (setting [4]) was 4.55; in test [1] (CXCR6, run 1, dose range 2) it was 4.50; in test [1] (CXCR6, run 2, dose range 2), 4.59. The inhibition in test [1] (setting [5]) came to 89.3%.
For the compound `Cc1ccc(S(=O)(=O)c2ccc([N+](=O)[O-])cn2)cc1`, the result in test [1] (CXCR6, dose range 1) was inactive. In addition, the pIC50 is 4.93 in test [1] (setting [4]); 4.94 in test [1] (CXCR6, run 1, dose range 2); 4.93 in test [1] (CXCR6, run 2, dose range 2). In addition, the inhibition in test [1] (setting [5]) stood at 109%.
As to `Cc1nnc(Sc2cc(NCCO)c([N+](=O)[O-])c3nonc23)s1`, the outcome in test [1] (CXCR6, dose range 1) was inactive. Also, the pIC50 in test [1] (setting [4]) was 4.92; in test [1] (CXCR6, run 1, dose range 2) it was 5.03; in test [1] (CXCR6, run 2, dose range 2), 4.83. In addition, the inhibition in test [1] (setting [5]) was 114%.
Regarding `Cc1cc(C)cc(N2C(=O)CC(Sc3nnnn3-c3ccccc3)C2=O)c1` (configuration not stated), in test [1] (CXCR6, dose range 1), the result was inactive. For the same compound, the pIC50 is 4.84 in test [1] (setting [4]); 4.86 in test [1] (CXCR6, run 1, dose range 2); 4.82 in test [1] (CXCR6, run 2, dose range 2). The inhibition in test [1] (setting [5]) came out at 113%.
Turning to `CCn1nccc1C(=O)Nc1nc2ccccc2n1CCN1CCCCC1`, the result in test [1] (CXCR6, dose range 1) was inactive. The pIC50 in test [1] (setting [4]) is 4.69; in test [1] (CXCR6, run 1, dose range 2), 4.76; in test [1] (CXCR6, run 2, dose range 2), 4.62. Moreover, in test [1] (setting [5]), the inhibition was determined as 84.7%.
For `O=C(C#Cc1ccccc1)c1ccccc1`, in that order: “inactive”, 4.95, 4.96, 4.93 and 113%.
On to `CC(O)CN(CC(C)O)c1ccc2c(c1)Cc1cc([N+](=O)[O-])ccc1-2` (configuration not stated), for which the result in test [1] (CXCR6, dose range 1) was inactive. Moreover, the pIC50 was 4.67 in test [1] (setting [4]); 4.70 in test [1] (CXCR6, run 1, dose range 2); 4.64 in test [1] (CXCR6, run 2, dose range 2). For the same compound, the inhibition in test [1] (setting [5]) amounted to 76%.
In the case of `Cc1ccccc1NC(=S)NNc1ncc(C(F)(F)F)cc1Cl`, the result in test [1] (CXCR6, dose range 1) was inactive. Also, the pIC50 is 4.82 in test [1] (setting [4]); 4.79 in test [1] (CXCR6, run 1, dose range 2); 4.86 in test [1] (CXCR6, run 2, dose range 2). Besides, the inhibition in test [1] (setting [5]) was found to be 83.5%.
Regarding `CC1=C(O)C(=O)C=C2C1=CC=C1C2(C)CCC2(C)C3CC(C)(C(=O)O)CCC3(C)CCC12C` (configuration not stated), in test [1] (CXCR6, dose range 1), the outcome was inactive. Also, the pIC50 in test [1] (setting [4]) is 4.71; in test [1] (CXCR6, run 1, dose range 2) it was 4.78; in test [1] (CXCR6, run 2, dose range 2), 4.66. For the same compound, the inhibition in test [1] (setting [5]) is 113%.
For the compound `Cc1ccc(OCC(=O)NNC(=S)NC(=O)C2CC2)c(C)c1`, the outcome in test [1] (CXCR6, dose range 1) was inactive. The pIC50 in test [1] (setting [4]) was 4.85; in test [1] (CXCR6, run 1, dose range 2), 4.99; in test [1] (CXCR6, run 2, dose range 2) it was 4.74. For the same compound, the inhibition in test [1] (setting [5]) is 72.3%.
For `Cc1[nH]n2c(=O)cc(-c3ccc([N+](=O)[O-])cc3)nc2c1-c1ccccc1`, in that order: “inactive”, 4.84, 4.86, 4.81 and 81.6%.
For the compound `Cn1cnc([N+](=O)[O-])c1S(=O)(=O)c1ccc(Cl)cc1`, the result in test [1] (CXCR6, dose range 1) was inactive. For the same compound, the pIC50 in test [1] (setting [4]) was 4.86; in test [1] (CXCR6, run 1, dose range 2), 4.84; in test [1] (CXCR6, run 2, dose range 2), 4.88. In addition, the inhibition in test [1] (setting [5]) was determined as 110%.
`CC(C)[C@H](NC(=O)OC(C)(C)C)c1nnc(S(=O)(=O)Cc2c(F)cccc2Cl)o1`: in test [1] (CXCR6, dose range 1), the outcome was inactive. The pIC50 was 4.88 in test [1] (setting [4]); 4.89 in test [1] (CXCR6, run 1, dose range 2); 4.86 in test [1] (CXCR6, run 2, dose range 2). Further, in test [1] (setting [5]), the inhibition came to 111%.
In the case of `N#CC(C#N)=C1C=CC=CN1/C(=C\c1ccco1)C(=O)c1ccc(-c2ccccc2)cc1`, in test [1] (CXCR6, dose range 1), the outcome was inactive. In addition, the pIC50 in test [1] (setting [4]) is 4.85; in test [1] (CXCR6, run 1, dose range 2) it was 4.91; in test [1] (CXCR6, run 2, dose range 2), 4.80. Besides, the inhibition in test [1] (setting [5]) was determined as 103%.
Consider `On1ccccc1=S`, for which the pIC50 in test [2] (dose range 1) was 4.88; in test [2] (dose range 1, mean IC50 across replicates), 4.75; in test [2] (run 2, dose range 1), 4.76; in test [2] (run 3, dose range 1), 4.65; in test [3] (CCR6, dose range 1), 4.94; in test [3] (CCR6, dose range 1, mean IC50 across replicates) it was 4.57. In addition, the pIC50 is 4.37 in test [3] (CCR6, run 2, dose range 1); 4.75 in test [1] (setting [4]); 4.76 in test [1] (CXCR6, run 2, dose range 1). Also, the activity value in test [1] was 80 µM (inactive). The IC50 entry in test [1] (CXCR6, dose range 1) was “inactive”. Besides, in test [1] (CXCR6, run 1, dose range 2, at 80 µM (top of the series)), the inhibition came to 51.2%.
Take `CCOc1cc(/C=C2\N=C(SC)SC2=O)cc([N+](=O)[O-])c1OC(C)=O`: the result in test [1] (CXCR6, dose range 1) was inactive. The pIC50 is 4.55 in test [1] (setting [4]); 4.56 in test [1] (CXCR6, run 1, dose range 2); 4.54 in test [1] (CXCR6, run 2, dose range 2). Also, in test [1] (setting [5]), the inhibition came to 98.2%.
Consider `COC(=O)c1cc(CSc2nc3ccc(C)cc3[nH]2)oc1C`, for which the outcome in test [1] (CXCR6, dose range 1) was inactive. Also, the pIC50 in test [1] (setting [4]) was 4.48; in test [1] (CXCR6, run 1, dose range 2), 4.54; in test [1] (CXCR6, run 2, dose range 2) it was 4.43. Also, the inhibition in test [1] (setting [5]) stood at 66.8%.
Take `COC(=O)C1=C(C(=O)OC)C2OC1c1cc3ccccc3cc12`: in test [1] (CXCR6, dose range 1), the result was inactive. Besides, the pIC50 is 4.84 in test [1] (setting [4]); 4.91 in test [1] (CXCR6, run 1, dose range 2); 4.78 in test [1] (CXCR6, run 2, dose range 2). In addition, the inhibition in test [1] (setting [5]) was 112%.
